Source: PMC6332330, “Four New Cyclohexylideneacetonitrile Derivatives from the Hypocotyl of Mangrove (Bruguiera gymnorrhiza)” (Molecules, 2015)
In brackets after ≈: the same amount, converted by molar mass.

Experiments:
[1] = test system: HBV replication; assay: Anti-HBV antiviral assay in standardized culture assay; conditions: for EC50: Hepatitis B virus, read-out: EC50 (anti-HBV activity); for activity against HBV replication (in words): human hepatoblastoma cell line, activity order 5 > 6 > 4 > 3 > 1 > 2 > 7; for SI (CC50/EC50): selectivity index, ratio of CC50 to EC50
[2] = Toxicity in standardized culture assay; conditions: human
[3] = HBV-producing human hepatoblastoma cell line

| SMILES | EC50 [1] | activity against HBV replication (in words) [1] | SI (CC50/EC50) [1] | CC50 [2, 3] | CC50 [2] |
| --- | --- | --- | --- | --- | --- |
| O=C1C=C2C=C[C@@H](O)C[C@H]2O1 [Compound 7, menisdaurilide] | 80.7 ± 5.8 µg/mL (≈ 530 µM) | lesser degree of specific activity | 2.7 | 215 ± 14.7 µg/mL (≈ 1410 µM) |  |
| CO[C@H]1CC/C(=C/C#N)[C@@H](O[C@@H]2O[C@H](CO)[C@@H](O)[C@H](O)[C@H]2O)C1 [Compound 2, Menisdaurin C] | 30.7 ± 1 µg/mL (≈ 93.2 µM) |  | 5.4 |  | 165 ± 10.4 µg/mL (≈ 501 µM) |
| N#C/C=C1/C=C[C@H](O)C[C@@H]1O[C@@H]1O[C@H](CO)[C@@H](O)[C@H](O)[C@H]1O [Compound 5, menisdaurin] | 5.1 ± 0.2 µg/mL (≈ 16.3 µM) | most effective activity | 11.3 |  | 57.8 ± 3.9 µg/mL (≈ 184 µM) |
| N#C/C=C1/CC[C@H](O)C[C@@H]1O [Compound 4, Menisdaurin E] | 8.7 ± 1.1 µg/mL (≈ 56.8 µM) |  | 8.3 | 72.3 ± 4.1 µg/mL (≈ 472 µM) |  |
| CO[C@H]1C=C/C(=C/C#N)[C@@H](O[C@@H]2O[C@H](CO)[C@@H](O)[C@H](O)[C@H]2O)C1 [Compound 1, Menisdaurin B] | 23.8 ± 0.5 µg/mL (≈ 72.7 µM) |  | 7.5 |  | 178 ± 13.3 µg/mL (≈ 544 µM) |
| N#C/C=C1\C=C[C@H](O)C[C@@H]1O [Compound 6, coclauril] | 7.6 ± 0.5 µg/mL (≈ 50.3 µM) |  | 11.0 |  | 83.9 ± 2.3 µg/mL (≈ 555 µM) |
| N#C/C=C1/CC[C@H](O)C[C@@H]1O[C@@H]1O[C@H](CO)[C@@H](O)[C@H](O)[C@H]1O [Compound 3, Menisdaurin D] | 19.4 ± 0.3 µg/mL (≈ 61.5 µM) |  | 9.4 |  | 182 ± 6.8 µg/mL (≈ 577 µM) |
| Nc1ccn([C@@H]2CS[C@H](CO)O2)c(=O)n1 [Lamivudine, reference compound] | 0.1 ± 0.03 µg/mL (≈ 0.436 µM) |  |  |  |  |
